# PubChem BioAssay AID1259407 (Chemical Carcinogenesis Research Information System (CCRIS), 2018)
# Calls of active or inactive are those of the source. The rule behind the calls is not given here.
# Test system: CCRIS mutagenicity, Ames/micronucleus/aberration tests
# Experiment: CCRIS mutagenicity studies
# [1] = Test System: AMES SALMONELLA TYPHIMURIUM, Strain/Indicator: TA100, Metabolic Activation: NONE, Method: STANDARD PLATE
smiles,measurement,setting,value
C=CC1CC2C=CC1C2 (stereo unspecified),mutagenic call,"Test System: AMES SALMONELLA TYPHIMURIUM, Strain/Indicator: TA98, Metabolic Activation: NONE, Method: PREINCUBATION",inactive; negative
same,mutagenic call,"Test System: AMES SALMONELLA TYPHIMURIUM, Strain/Indicator: TA98, Metabolic Activation: RAT LIVER S-9, AROCLOR 1254, Method: PREINCUBATION",inactive; negative
same,mutagenic call,"Test System: AMES SALMONELLA TYPHIMURIUM, Strain/Indicator: TA100, Metabolic Activation: NONE, Method: PREINCUBATION",inactive; negative
same,mutagenic call,"Test System: AMES SALMONELLA TYPHIMURIUM, Strain/Indicator: TA100, Metabolic Activation: RAT LIVER S-9, AROCLOR 1254, Method: PREINCUBATION",inactive; negative
same,mutagenic call,"Test System: AMES SALMONELLA TYPHIMURIUM, Strain/Indicator: TA1535, Metabolic Activation: NONE, Method: PREINCUBATION",inactive; negative
same,mutagenic call,"Test System: AMES SALMONELLA TYPHIMURIUM, Strain/Indicator: TA1535, Metabolic Activation: RAT LIVER S-9, AROCLOR 1254, Method: PREINCUBATION",inactive; negative
same,mutagenic call,"Test System: AMES SALMONELLA TYPHIMURIUM, Strain/Indicator: TA1537, Metabolic Activation: NONE, Method: PREINCUBATION",inactive; negative
same,mutagenic call,"Test System: AMES SALMONELLA TYPHIMURIUM, Strain/Indicator: TA1537, Metabolic Activation: RAT LIVER S-9, AROCLOR 1254, Method: PREINCUBATION",inactive; negative
same,mutagenic call,"Test System: AMES SALMONELLA TYPHIMURIUM, Strain/Indicator: TA1538, Metabolic Activation: NONE, Method: PREINCUBATION",inactive; negative
same,mutagenic call,"Test System: AMES SALMONELLA TYPHIMURIUM, Strain/Indicator: TA1538, Metabolic Activation: RAT LIVER S-9, AROCLOR 1254, Method: PREINCUBATION",inactive; negative
same,mutagenic call,"Test System: CHINESE HAMSTER OVARY, Strain/Indicator: CHO-K1-BH4 (HGPRT)/6-THIOGUANINE, Metabolic Activation: NONE",inactive; negative
same,mutagenic call,"Test System: CHINESE HAMSTER OVARY, Strain/Indicator: CHO-K1-BH4 (HGPRT)/6-THIOGUANINE, Metabolic Activation: RAT LIVER S-9, AROCLOR 1254",inactive; negative
CC(=O)/C=C/CCC(=O)/C=C/C(=O)O[C@@H](CCC(=O)/C=C/C(=O)O)CC(C)=O,mutagenic call,"Test System: CHINESE HAMSTER V-79, Strain/Indicator: V-79 (HPRT)/6-THIOGUANINE, Metabolic Activation: NONE",active; positive
Nc1ccc(N(c2ccc3ccccc3c2)c2ccc3ccccc3c2)cc1,mutagenic call,"Test System: AMES SALMONELLA TYPHIMURIUM, Strain/Indicator: TA98, Metabolic Activation: NONE, Method: STANDARD PLATE",inactive; negative
same,mutagenic call,"Test System: AMES SALMONELLA TYPHIMURIUM, Strain/Indicator: TA98, Metabolic Activation: S-9, Method: STANDARD PLATE",inactive; negative
same,mutagenic call,[1],inactive; negative
same,mutagenic call,"Test System: AMES SALMONELLA TYPHIMURIUM, Strain/Indicator: TA100, Metabolic Activation: S-9, Method: STANDARD PLATE",inactive; negative
CCCOc1ccccc1C(=O)NOC(C)=O,mutagenic call,[1],active; positive
same,mutagenic call,"Test System: AMES SALMONELLA TYPHIMURIUM, Strain/Indicator: TA100, Metabolic Activation: RAT, S-9, AROCLOR, Method: STANDARD PLATE",active; positive
O=C(O)c1cc2c(c3c1c([N+](=O)[O-])cc1ccccc13)OCO2,mutagenic call,"Test System: AMES SALMONELLA TYPHIMURIUM, Strain/Indicator: TA98, Metabolic Activation: RAT, LIVER, S-9, Method: STANDARD PLATE",inactive; negative
same,mutagenic call,[1],active; positive
same,mutagenic call,"Test System: AMES SALMONELLA TYPHIMURIUM, Strain/Indicator: TA100, Metabolic Activation: RAT, LIVER, CYTOSOL, Method: STANDARD PLATE",active; positive
same,mutagenic call,"Test System: AMES SALMONELLA TYPHIMURIUM, Strain/Indicator: TA100, Metabolic Activation: RAT, LIVER, MICROSOMES, Method: STANDARD PLATE",active; positive
same,mutagenic call,"Test System: AMES SALMONELLA TYPHIMURIUM, Strain/Indicator: TA100, Metabolic Activation: RAT, LIVER, S-9, 3-METHYLCHOLANTHRENE, Method: STANDARD PLATE",active; positive
same,mutagenic call,"Test System: AMES SALMONELLA TYPHIMURIUM, Strain/Indicator: TA1537, Metabolic Activation: NONE, Method: STANDARD PLATE",active; positive
same,mutagenic call,"Test System: AMES SALMONELLA TYPHIMURIUM, Strain/Indicator: YG1020, Metabolic Activation: NONE, Method: STANDARD PLATE",active; positive
same,mutagenic call,"Test System: AMES SALMONELLA TYPHIMURIUM, Strain/Indicator: YG1021, Metabolic Activation: NONE, Method: STANDARD PLATE",active; positive
same,mutagenic call,"Test System: AMES SALMONELLA TYPHIMURIUM, Strain/Indicator: YG1024, Metabolic Activation: NONE, Method: STANDARD PLATE",active; positive
same,mutagenic call,"Test System: AMES SALMONELLA TYPHIMURIUM, Strain/Indicator: YG1025, Metabolic Activation: NONE, Method: STANDARD PLATE",active; positive
same,mutagenic call,"Test System: AMES SALMONELLA TYPHIMURIUM, Strain/Indicator: YG1026, Metabolic Activation: NONE, Method: STANDARD PLATE",active; positive
same,mutagenic call,"Test System: AMES SALMONELLA TYPHIMURIUM, Strain/Indicator: YG1029, Metabolic Activation: NONE, Method: STANDARD PLATE",active; positive
